How the values were obtained:
Type in all cases: in vivo
[1] = test system: large (Lg) crabgrass (Digitaria sanguinalis); assay: Test A postemergence; details: 0 to 100 scale
In short: (§1)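 Greenhouse pot test, loam/sand soil. Formulation: non-phytotoxic solvent mix plus surfactant. Pre: directed spray onto soil after sowing. Post: plants at 1–2 leaf, 2–10 cm. Rated visually vs untreated controls at ~10 d, 0 (no effect) to 100 (complete control).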

[2] = test system: morningglory (Ipomoea spp.); assay: Test A postemergence; details: 0 to 100 scale
In short: as §1

[3] = test system: corn (Zea mays); assay: Test A preemergence; details: 0 to 100 scale
In short: as §1

[4] = test system: large (Lg) crabgrass (Digitaria sanguinalis); assay: Test A preemergence; details: for Plant response rating, Crabgrass, Large: 0 to 100 scale; for Crabgrass, Large plant response rating: 0 to 100 scale (0 no effect, 100 complete control)
In short: as §1

[5] = test system: velvetleaf (Abutilon theophrasti); assay: Test A preemergence; details: for Plant response rating, Velvetleaf: 0 to 100 scale; for Velvetleaf plant response rating: 0 to 100 scale (0 no effect, 100 complete control)
In short: as §1

[6] = test system: wheat (Triticum aestivum); assay: Test A preemergence; details: for Plant response rating, Wheat: 0 to 100 scale; for Wheat plant response rating: 0 to 100 scale (0 no effect, 100 complete control)
In short: as §1

[7] = test system: morningglory (Ipomoea spp.); assay: Test A preemergence; details: for Plant response rating, Morningglory: 0 to 100 scale; for Morningglory plant response rating: 0 to 100 scale (0 no effect, 100 complete control)
In short: as §1

[8] = test system: ducksalad (Heteranthera limosa); assay: Test C flooded paddy; details: Flood, scale 0 to 100
From the text: (§2) At time of treatment, test pots were flooded to 3 cm above the soil surface, treated by application of test compounds directly to the paddy water, and then maintained at that water depth for the duration of the test. Treated plants and controls were maintained in a greenhouse for 13 to 15 days, after which time all species were compared to controls and visually evaluated. […] A dash (-) response means no test result.

[9] = test system: barnyardgrass (Echinochloa crus-galli); assay: Test C flooded paddy; details: Flood, scale 0 to 100
From the text: as §2

[10] = test system: sedge, umbrella (small-flower umbrella sedge, Cyperus difformis); assay: Test C flooded paddy; details: Flood, scale 0 to 100
From the text: as §2

[11] = test system: rice (Oryza sativa); assay: Test C flooded paddy; details: Flood, scale 0 to 100
From the text: as §2

[12] = test system: cocklebur (common cocklebur, Xanthium strumarium); assay: Test E preemergence; details: scale 0 to 100
In short: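 Preemergence: seeds in silt loam treated with compound in non-phytotoxic solvent with surfactant. Postemergence: plants at 1- to 4-leaf stage (2–18 cm) in peat-based medium sprayed likewise. Greenhouse 14–21 days, then visual rating vs controls, 0 (no effect) to 100 (complete control).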

| SMILES | Plant response rating, Crabgrass, Large ([1]; 125 g ai/ha) | Plant response rating, Crabgrass, Large ([1]; 500 g ai/ha) | Plant response rating, Morningglory ([2]; 125 g ai/ha) | Plant response rating, Morningglory ([2]; 500 g ai/ha) | Plant response rating, Corn ([3]; 125 g ai/ha) | Plant response rating, Corn ([3]; 500 g ai/ha) | Plant response rating, Crabgrass, Large ([4]; 500 g ai/ha) | Plant response rating, Velvetleaf ([5]; 500 g ai/ha) | Plant response rating, Wheat ([6]; 500 g ai/ha) | Plant response rating, Morningglory ([7]; 500 g ai/ha) | Plant response rating, Ducksalad ([8]; 31 g ai/ha) | Plant response rating, Ducksalad ([8]; 62 g ai/ha) | Plant response rating, Ducksalad ([8]; 125 g ai/ha) | Plant response rating, Ducksalad ([8]; 250 g ai/ha) | Plant response rating, Barnyardgrass ([9]; 31 g ai/ha) | Plant response rating, Barnyardgrass ([9]; 62 g ai/ha) | Plant response rating, Barnyardgrass ([9]; 125 g ai/ha) | Plant response rating, Barnyardgrass ([9]; 250 g ai/ha) | Plant response rating, Sedge, Umbrella ([10]; 31 g ai/ha) | Plant response rating, Sedge, Umbrella ([10]; 62 g ai/ha) | further results |
| --- | --- | --- | --- | --- | --- | --- | --- | --- | --- | --- | --- | --- | --- | --- | --- | --- | --- | --- | --- | --- | --- |
| N#Cc1cccc(Oc2ncc(Cl)cn2)c1Oc1ncc(Cl)cn1 [Compound 3, 2,3-bis[(5-chloro-2-pyrimidinyl)oxy]benzonitrile] | 90 | 90 | 100 | 100 | 60 | 70 | 100 | 100 | 80 | 100 | – | – | – | – | – | – | – | – | – | – | Plant response rating, Crabgrass, Large ([4]; 125 g ai/ha): 100; Plant response rating, Velvetleaf ([5]; 125 g ai/ha): 100; Plant response rating, Wheat ([6]; 125 g ai/ha): 30; Plant response rating, Morningglory ([7]; 125 g ai/ha): 100 |
| N#Cc1cccc(Oc2ncc(Cl)cn2)c1Oc1ncc(Br)cn1 [Compound 4, 2-[(5-bromo-2-pyrimidinyl)oxy]-3-[(5-chloro-2-pyrimidinyl)oxy]benzonitrile] | – | – | – | – | – | – | – | – | – | – | 0 | 40 | 100 | 100 | 0 | 0 | 20 | 40 | 0 | 0 | Plant response rating, Sedge, Umbrella ([10]; 125 g ai/ha): 75; Plant response rating, Sedge, Umbrella ([10]; 250 g ai/ha): 100; Plant response rating, Rice ([11]; 31 g ai/ha): 0; Plant response rating, Rice ([11]; 62 g ai/ha): 0; Plant response rating, Rice ([11]; 125 g ai/ha): 0; Plant response rating, Rice ([11]; 250 g ai/ha): 30 |
| Clc1cnc(Oc2cccc(Br)c2Oc2ncc(Cl)cn2)nc1 [Compound 19, 2,2′-[[3-bromo-1,2-phenylene]bis(oxy)]bis[5-chloropyrimidine]] | 70 | 90 | 70 | 100 | 10 | 60 | 100 | 90 | 70 | 100 | – | – | – | – | – | – | – | – | – | – | Plant response rating, Cocklebur ([12]; 16 g ai/ha): 0; Plant response rating, Cocklebur ([12]; 62 g ai/ha): 0; Plant response rating, Cocklebur ([12]; 125 g ai/ha): 0; Crabgrass, Large plant response rating ([4]; 125 g ai/ha): 100; Velvetleaf plant response rating ([5]; 125 g ai/ha): 80; Wheat plant response rating ([6]; 125 g ai/ha): 40; Morningglory plant response rating ([7]; 125 g ai/ha): 70 |
| Fc1cccc(Oc2ncc(Cl)cn2)c1Oc1ccc(Cl)nc1 [Compound 20] | – | – | – | – | – | – | – | – | – | – | 0 | 0 | 45 | 70 | 0 | 0 | 0 | 0 | 0 | 0 | Plant response rating, Sedge, Umbrella ([10]; 125 g ai/ha): 65; Plant response rating, Sedge, Umbrella ([10]; 250 g ai/ha): 80; Plant response rating, Rice ([11]; 31 g ai/ha): 0; Plant response rating, Rice ([11]; 62 g ai/ha): 0; Plant response rating, Rice ([11]; 125 g ai/ha): 0; Plant response rating, Rice ([11]; 250 g ai/ha): 0 |
| Fc1cccc(Oc2ncc(Cl)cn2)c1Oc1ncc(Cl)cn1 [Compound 21, 2,2′-[[3-fluoro-1,2-phenylene]bis(oxy)]bis[5-chloropyrimidine]] | 80 | 90 | 90 | 100 | 40 | 60 | 100 | 90 | 60 | 100 | – | – | – | – | – | – | – | – | – | – | Plant response rating, Cocklebur ([12]; 31 g ai/ha): 35; Plant response rating, Cocklebur ([12]; 62 g ai/ha): 40; Plant response rating, Cocklebur ([12]; 125 g ai/ha): 50; Crabgrass, Large plant response rating ([4]; 125 g ai/ha): 100; Velvetleaf plant response rating ([5]; 125 g ai/ha): 80; Wheat plant response rating ([6]; 125 g ai/ha): 60; Morningglory plant response rating ([7]; 125 g ai/ha): 90 |

Reference: patent publication US20170190671A1, “BIS(ARYL)CATECHOL DERIVATIVES AS HERBICIDES” (E I DU PONT DE NEMOURS AND COMPANY, priority 2014, published 2017)
